The source of these data is patent publication US20230382851A1, “GAMMA-HYDRO[…] AND PROCESSES FOR MAKING AND USING THEM” (Zevra Therapeutics, Inc., priority 2022, published 2023).

Structures are written as SMILES.

A short description of the data set: Pharmacokinetics of GHB in plasma after oral gavage of GHB delivering compounds; relative oral bioavailability vs sodium oxybate. The conditions noted are these: vehicle water.
[1] abbreviates: dose equivalent to 80 mg/kg NaGHB.
Setting [2] is: molar equivalent of 100 mg/kg NaGHB.

For the compound `CCOC(=O)OCCCC(=O)O` [O-(ethoxycarbonyl)-GHB, O-(Ethoxycarbonyl)-GHB], under setting [1], the “% AUC0-4 hr vs study comparator (sodium oxybate)” value amounted to 54% and the “% Cmax vs study comparator (sodium oxybate)” value stood at 51%.
In the case of `O=C1CCCO1` [GBL], under setting [2], the “% AUC0-4 hr vs study comparator (sodium oxybate)” value came out at 27% and the “% Cmax vs study comparator (sodium oxybate)” value amounted to 70%.
